In paper PMC4583449, “Characterisation of (R)-2-(2-Fluorobiphenyl-4-yl)-N-(3-Methylpyridin-2-yl)Propanamide as a Dual Fatty Acid Amide Hydrolase: Cyclooxygenase Inhibitor” (PLoS ONE, 2015):
Like-named read-outs stand apart in the source and are kept apart here.

Key:
[1] = target: T1, mouse brain FAAH (Mus musculus, UniProt O08914); assay: FAAH assay, [3H]AEA hydrolysis in mouse brain homogenates; assay type: biochemical
T1 construct: Brains from male B6CBAF1/J mice, stored at -80°C, were thawed, weighed and homogenized in cold buffer; from tissue; host or cells: brain of male B6CBAF1/J mice (washed membrane pellet homogenate)
T1 sequence (O08914 1-579): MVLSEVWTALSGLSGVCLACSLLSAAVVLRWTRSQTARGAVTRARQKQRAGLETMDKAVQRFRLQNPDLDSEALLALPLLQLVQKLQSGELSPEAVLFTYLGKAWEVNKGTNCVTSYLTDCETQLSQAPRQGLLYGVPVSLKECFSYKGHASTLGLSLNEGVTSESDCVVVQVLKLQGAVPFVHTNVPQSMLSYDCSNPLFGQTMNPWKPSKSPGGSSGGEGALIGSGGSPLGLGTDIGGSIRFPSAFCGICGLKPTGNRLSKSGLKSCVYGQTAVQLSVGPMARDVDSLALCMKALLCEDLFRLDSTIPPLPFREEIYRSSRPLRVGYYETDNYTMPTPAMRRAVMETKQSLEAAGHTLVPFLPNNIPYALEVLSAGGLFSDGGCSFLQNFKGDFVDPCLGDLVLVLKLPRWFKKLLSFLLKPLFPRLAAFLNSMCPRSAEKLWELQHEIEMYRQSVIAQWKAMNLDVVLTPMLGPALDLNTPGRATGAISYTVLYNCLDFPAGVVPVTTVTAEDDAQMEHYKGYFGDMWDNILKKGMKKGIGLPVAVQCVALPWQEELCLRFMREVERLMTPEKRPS
Experimental: Brains from male B6CBAF1/J mice, stored at -80°C, were thawed, weighed and homogenized in cold buffer (20 mM HEPES, 1 mM MgCl2 pH 7.0). Homogenates were centrifuged (35,000 g at 4°C for 20 min) before the pellet was resuspended in cold homogenization buffer. Centrifugation and resuspension was repeated twice. The suspension was incubated at 37°C for 15 min to degrade any endogenous substrate able to interfere with the FAAH assay. After centrifugation (35,000 g at 4°C for 20 min), the pellet was resuspended in cold buffer (50 mM Tris-HCl, 1mM EDTA, 3 mM MgCl2, pH 7.4). The protein concentration was determined according to the Bradford assay after which the samples were frozen in aliquots at -80°C. Ethical permission for the animal experiments was obtained from the local animal research ethical committee (Umeå Ethical Committee for Animal Research, Umeå, Sweden). FAAH was assayed using the method of Boldrup et al., whereby homogenates (0.3 μg protein / assay) in assay buffer (10 mM Tris-HCl, 1mM EDTA, pH 7.4), test compounds and substrate ([^3H]AEA in 10 mM Tris-HCl, 1mM EDTA, pH 7.4 containing 10 mg/ml fatty acid-free bovine serum, assay concentration 0.5 μM unless otherwise stated) were incubated for 10 min at 37°C. Thereafter, 400 μL activated charcoal (80 μL activated charcoal + 320 μL 0.5 M HCl) was added and the samples were placed on ice and centrifuged at 2500 rpm for 10 min. Aliquots (200 μL) of the supernatant was analyzed for tritium content by liquid scintillation spectroscopy with quench correction.

[2] = target: T2, rat brain FAAH (Rattus norvegicus, UniProt P97612); assay: [3H]AEA hydrolysis in rat brain homogenates; assay type: biochemical; conditions: current authors, unpublished data; read-out: IC50 inhibition of [3H]AEA hydrolysis in rat brain homogenates
T2 construct: the racemate was studied in rat brain homogenates, whereas mouse brain homogenates were used here; from tissue; host or cells: rat brain homogenates
T2 sequence (P97612 1-579): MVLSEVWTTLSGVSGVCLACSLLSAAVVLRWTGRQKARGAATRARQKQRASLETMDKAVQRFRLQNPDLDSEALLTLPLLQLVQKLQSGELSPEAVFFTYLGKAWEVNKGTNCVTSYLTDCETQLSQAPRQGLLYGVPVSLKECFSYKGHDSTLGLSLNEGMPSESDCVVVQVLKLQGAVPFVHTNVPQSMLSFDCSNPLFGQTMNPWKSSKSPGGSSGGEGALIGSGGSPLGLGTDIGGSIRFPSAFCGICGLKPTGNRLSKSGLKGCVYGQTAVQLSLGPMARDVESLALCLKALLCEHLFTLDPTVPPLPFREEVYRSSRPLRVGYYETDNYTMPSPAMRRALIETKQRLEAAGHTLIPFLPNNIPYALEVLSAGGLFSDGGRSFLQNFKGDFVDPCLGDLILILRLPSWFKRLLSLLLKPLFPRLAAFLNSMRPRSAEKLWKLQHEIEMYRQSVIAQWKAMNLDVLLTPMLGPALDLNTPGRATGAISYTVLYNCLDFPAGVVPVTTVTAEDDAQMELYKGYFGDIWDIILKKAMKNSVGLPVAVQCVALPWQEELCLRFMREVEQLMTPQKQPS

[3] = test system: RAW 264.7 cells; assay: [3H]AEA hydrolysis by intact RAW 264.7 cells; assay type: cell-based, mouse; conditions: LPS + INF-γ-treated cells; 100 nM [3H]AEA, 60 min; URB597 1 μM, flurbiprofen and (R)-Flu-AM1 10 μM

Cc1cccnc1NC(=O)[C@H](C)c1ccc(-c2ccccc2)c(F)c1 [(R)-Flu-AM1, (R)-2-(2-Fluorobiphenyl-4-yl)-N-(3-Methylpyridin-2-yl)Propanamide]
IC50 ([1]; 0.5 μM [3H]AEA, read-out: IC50 inhibition of [3H]AEA hydrolysis in mouse brain homogenates): 8.8 µM | Ki ([1]; Dixon replot of mean kinetic data, 1–8 μM [3H]AEA, read-out: Ki FAAH (Dixon plot)): 19 µM | Mode of FAAH inhibition ([1]; kinetic experiments, 1–8 μM [3H]AEA): competitive inhibitor | Ki ([1]; kinetic experiments, 1–8 μM [3H]AEA, read-out: Ki FAAH (competitive model fit)): 20 ± 8 µM | IC50 [2]: 0.74 µM | Effect on hydrolysis of exogenous [3H]AEA by intact cells [3]: would not be expected, and this was found to be the case
